Where a SMILES comes first, the peptide text is derived from it. [ ]: non-standard residue; d: D form. The star is where a group is joined. NHCH2CH2OH = OCCN*; For = O=C*
Tests used:
[1] = H+/Na+ transport assay of bead-derived peptides (one-point); assay type: biochemical; design: key: relative activity; mean of two control wells = 1.00; conditions: bead-derived peptide solution, EYPC/EYPG LUVs;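 also: relative to parent gramicidin A activity set to 1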
Summary of the method: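 Values are normalized fluorescence, with Triton X-100 defining 100% and untreated LUVs 0%, and the two control wells averaging 1.00. Vesicles carried 1.0 mM pyranine and included egg yolk phosphatidylglycerol. Peptides were incubated with them 30 min at room temperature.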

[2] = cell viability/%
Summary of the method: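 P388 cells at 1 × 10^4 cells/mL (final) were exposed to library peptides (stocks diluted 250-fold in RPMI1640/10% FBS) for 92 h at 37 °C, 5% CO2. Viable cells were counted by WST-1/1-methoxy PMS (4 h), absorbance 415 nm, and expressed as cell viability (%).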

[3] = test system: Streptococcus pyogenes SSI-9; experiment: Antibacterial activity assay of bead-derived peptides (three concentrations); assay type: cell-based; design: key: +++: inhibition by the 640-fold diluted peptide solution; ++: inhibition by the 160-fold diluted solution; +: inhibition by the 40-fold diluted solution; -: no inhibition; conditions: S. pyogenes, bead-derived peptide solution, three concentrations
Summary of the method: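 Library peptide stock applied undiluted, 4-fold and 16-fold diluted in DMSO to S. pyogenes SSI-9 (2 × 10^5 CFU) in cation-adjusted Mueller Hinton broth with 5% laked horse blood. After 18 h at 37 °C, growth judged by visible cell precipitation.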

Compound	H+/Na+ transport activity normalized against the value of 1 (1.00) [1]	viability [2]	antibacterial activity [3]
CC(C)C[C@@H](NC(=O)[C@H](C)NC(=O)CNC(=O)[C@@H](NC=O)C(C)C)C(=O)N[C@@H](C)C(=O)N[C@H](CC(C)C)C(=O)N[C@H](C(=O)N[C@@H](C(=O)N[C@@H](Cc1c[nH]c2ccccc12)C(=O)N[C@H](CC(C)C)C(=O)N[C@@H](Cc1c[nH]c2ccccc12)C(=O)N[C@@H](C(=O)N[C@@H](Cc1c[nH]c2ccccc12)C(=O)N[C@@H](C(=O)N[C@@H](Cc1c[nH]c2ccccc12)C(=O)NCCO)C(C)C)C(C)C)C(C)C)C(C)C [compound 2557] (For-VGA[dL]A[dL]V[dV]W[dL]W[dV]W[dV]W-NHCH2CH2OH)	1.21	31%	++
CC(C)C[C@@H](NC(=O)[C@H](C)NC(=O)[C@H](NC(=O)[C@H](C)NC(=O)CNC(=O)[C@@H](NC=O)C(C)C)C(C)C)C(=O)N[C@H](C(=O)N[C@H](CC(C)C)C(=O)N[C@@H](Cc1c[nH]c2ccccc12)C(=O)N[C@H](CC(C)C)C(=O)N[C@@H](Cc1c[nH]c2ccccc12)C(=O)N[C@@H](C(=O)N[C@@H](Cc1c[nH]c2ccccc12)C(=O)N[C@H](CC(C)C)C(=O)N[C@@H](Cc1c[nH]c2ccccc12)C(=O)NCCO)[C@H](C)O)C(C)C [compound 2682] (For-VGA[dV]A[dL]V[dL]W[dL]W[dT]W[dL]W-NHCH2CH2OH)	1.06	100%	+
CC(C)C[C@@H](NC(=O)[C@H](C)NC(=O)[C@H](NC(=O)[C@H](C)NC(=O)CNC(=O)[C@@H](NC=O)C(C)C)C(C)C)C(=O)N[C@H](C(=O)N[C@@H](C(=O)N[C@@H](Cc1c[nH]c2ccccc12)C(=O)N[C@@H](C(=O)N[C@@H](Cc1c[nH]c2ccccc12)C(=O)N[C@@H](C(=O)N[C@@H](Cc1c[nH]c2ccccc12)C(=O)N[C@H](CC(C)C)C(=O)N[C@@H](Cc1c[nH]c2ccccc12)C(=O)NCCO)[C@H](C)O)C(C)C)C(C)C)C(C)C [compound 2727] (For-VGA[dV]A[dL]V[dV]W[dV]W[dT]W[dL]W-NHCH2CH2OH)	1.05	100%	-
CC(C)C[C@@H](NC(=O)[C@H](C)NC(=O)CNC(=O)[C@@H](NC=O)C(C)C)C(=O)N[C@@H](C)C(=O)N[C@H](CC(C)C)C(=O)N[C@H](C(=O)N[C@@H](C(=O)N[C@@H](Cc1c[nH]c2ccccc12)C(=O)N[C@@H](C(=O)N[C@@H](Cc1c[nH]c2ccccc12)C(=O)N[C@@H](C(=O)N[C@@H](Cc1c[nH]c2ccccc12)C(=O)N[C@@H](C(=O)N[C@@H](Cc1c[nH]c2ccccc12)C(=O)NCCO)[C@H](C)O)C(C)C)C(C)C)C(C)C)C(C)C [compound 2793] (For-VGA[dL]A[dL]V[dV]W[dV]W[dV]W[dT]W-NHCH2CH2OH)	1.08	84.6%	-
CC(C)C[C@@H](NC(=O)[C@H](C)NC(=O)CNC(=O)[C@@H](NC=O)C(C)C)C(=O)N[C@@H](C)C(=O)N[C@H](CC(C)C)C(=O)N[C@H](C(=O)N[C@H](CC(C)C)C(=O)N[C@@H](Cc1c[nH]c2ccccc12)C(=O)N[C@@H](C(=O)N[C@@H](Cc1c[nH]c2ccccc12)C(=O)N[C@H](CC(C)C)C(=O)N[C@@H](Cc1c[nH]c2ccccc12)C(=O)N[C@H](CC(C)C)C(=O)N[C@@H](Cc1c[nH]c2ccccc12)C(=O)NCCO)C(C)C)C(C)C [compound 2828] (For-VGA[dL]A[dL]V[dL]W[dV]W[dL]W[dL]W-NHCH2CH2OH)	1.15	2.8%	-
CC(C)C[C@@H](NC(=O)[C@H](Cc1c[nH]c2ccccc12)NC(=O)[C@H](NC(=O)[C@H](Cc1c[nH]c2ccccc12)NC(=O)[C@@H](CC(C)C)NC(=O)[C@H](Cc1c[nH]c2ccccc12)NC(=O)[C@H](NC(=O)[C@@H](NC(=O)[C@H](NC(=O)[C@H](C)NC(=O)[C@H](NC(=O)[C@H](C)NC(=O)CNC(=O)[C@@H](NC=O)C(C)C)C(C)C)C(C)C)C(C)C)[C@H](C)O)C(C)C)C(=O)N[C@@H](Cc1c[nH]c2ccccc12)C(=O)NCCO [compound 2829] (For-VGA[dV]A[dV]V[dT]W[dL]W[dV]W[dL]W-NHCH2CH2OH)	1.13	100%	-
CC(C)C[C@@H](NC(=O)[C@H](C)NC(=O)[C@H](NC(=O)[C@H](C)NC(=O)CNC(=O)[C@@H](NC=O)C(C)C)C(C)C)C(=O)N[C@H](C(=O)N[C@H](CC(C)C)C(=O)N[C@@H](Cc1c[nH]c2ccccc12)C(=O)N[C@@H](C(=O)N[C@@H](Cc1c[nH]c2ccccc12)C(=O)N[C@H](CC(C)C)C(=O)N[C@@H](Cc1c[nH]c2ccccc12)C(=O)N[C@@H](C(=O)N[C@@H](Cc1c[nH]c2ccccc12)C(=O)NCCO)[C@H](C)O)C(C)C)C(C)C [compound 2895] (For-VGA[dV]A[dL]V[dL]W[dV]W[dL]W[dT]W-NHCH2CH2OH)	1.06	95.1%	-
CC(C)C[C@@H](NC(=O)[C@H](C)NC(=O)CNC(=O)[C@@H](NC=O)C(C)C)C(=O)N[C@@H](C)C(=O)N[C@H](CC(C)C)C(=O)N[C@H](C(=O)N[C@H](CC(C)C)C(=O)N[C@@H](Cc1c[nH]c2ccccc12)C(=O)N[C@H](CC(C)C)C(=O)N[C@@H](Cc1c[nH]c2ccccc12)C(=O)N[C@H](CC(C)C)C(=O)N[C@@H](Cc1c[nH]c2ccccc12)C(=O)N[C@H](CC(C)C)C(=O)N[C@@H](Cc1c[nH]c2ccccc12)C(=O)NCCO)C(C)C [compound 2904] (For-VGA[dL]A[dL]V[dL]W[dL]W[dL]W[dL]W-NHCH2CH2OH)	1.09	12.5%	-
CNC(=O)C[C@@H](NC(=O)[C@H](Cc1c[nH]c2ccccc12)NC(=O)[C@H](NC(=O)[C@H](Cc1c[nH]c2ccccc12)NC(=O)[C@H](NC(=O)[C@H](Cc1c[nH]c2ccccc12)NC(=O)[C@H](NC(=O)[C@@H](NC(=O)[C@@H](CC(C)C)NC(=O)[C@H](C)NC(=O)[C@H](NC(=O)[C@H](C)NC(=O)CNC(=O)[C@@H](NC=O)C(C)C)C(C)C)C(C)C)C(C)C)C(C)C)C(C)C)C(=O)N[C@@H](Cc1c[nH]c2ccccc12)C(=O)NCCO [compound 2911] (For-VGA[dV]A[dL]V[dV]W[dV]W[dV]W[dD](NHMe)W-NHCH2CH2OH)	1.16	100%	-
CC(C)C[C@@H](NC(=O)[C@H](C)NC(=O)CNC(=O)[C@@H](NC=O)C(C)C)C(=O)N[C@@H](C)C(=O)N[C@H](CC(C)C)C(=O)N[C@H](C(=O)N[C@@H](C(=O)N[C@@H](Cc1c[nH]c2ccccc12)C(=O)N[C@@H](C(=O)N[C@@H](Cc1c[nH]c2ccccc12)C(=O)N[C@@H](C(=O)N[C@@H](Cc1c[nH]c2ccccc12)C(=O)N[C@H](CC(C)C)C(=O)N[C@@H](Cc1c[nH]c2ccccc12)C(=O)NCCO)C(C)C)[C@H](C)O)C(C)C)C(C)C [compound 2931] (For-VGA[dL]A[dL]V[dV]W[dT]W[dV]W[dL]W-NHCH2CH2OH)	1.06	100%	+
CNC(=O)C[C@@H](NC(=O)[C@@H](NC(=O)[C@@H](CC(C)C)NC(=O)[C@H](C)NC(=O)[C@@H](CC(C)C)NC(=O)[C@H](C)NC(=O)CNC(=O)[C@@H](NC=O)C(C)C)C(C)C)C(=O)N[C@@H](Cc1c[nH]c2ccccc12)C(=O)N[C@@H](C(=O)N[C@@H](Cc1c[nH]c2ccccc12)C(=O)N[C@H](CC(C)C)C(=O)N[C@@H](Cc1c[nH]c2ccccc12)C(=O)N[C@H](CC(C)C)C(=O)N[C@@H](Cc1c[nH]c2ccccc12)C(=O)NCCO)C(C)C [compound 2978] (For-VGA[dL]A[dL]V[dD](NHMe)W[dV]W[dL]W[dL]W-NHCH2CH2OH)	1.18	100%	-
CC(C)C[C@@H](NC(=O)[C@@H](NC(=O)[C@H](NC(=O)[C@H](C)NC(=O)[C@H](NC(=O)[C@H](C)NC(=O)CNC(=O)[C@@H](NC=O)C(C)C)[C@H](C)O)C(C)C)C(C)C)C(=O)N[C@@H](Cc1c[nH]c2ccccc12)C(=O)N[C@@H](C(=O)N[C@@H](Cc1c[nH]c2ccccc12)C(=O)N[C@@H](C(=O)N[C@@H](Cc1c[nH]c2ccccc12)C(=O)N[C@@H](C(=O)N[C@@H](Cc1c[nH]c2ccccc12)C(=O)NCCO)C(C)C)C(C)C)C(C)C [compound 3019] (For-VGA[dT]A[dV]V[dL]W[dV]W[dV]W[dV]W-NHCH2CH2OH)	1.12	100%	-
CC(C)C[C@@H](NC(=O)[C@H](C)NC(=O)[C@H](NC(=O)[C@H](C)NC(=O)CNC(=O)[C@@H](NC=O)C(C)C)[C@H](C)O)C(=O)N[C@H](C(=O)N[C@H](CC(C)C)C(=O)N[C@@H](Cc1c[nH]c2ccccc12)C(=O)N[C@@H](C(=O)N[C@@H](Cc1c[nH]c2ccccc12)C(=O)N[C@H](CC(C)C)C(=O)N[C@@H](Cc1c[nH]c2ccccc12)C(=O)N[C@@H](C(=O)N[C@@H](Cc1c[nH]c2ccccc12)C(=O)NCCO)[C@H](C)O)C(C)C)C(C)C [compound 3130] (For-VGA[dT]A[dL]V[dL]W[dV]W[dL]W[dT]W-NHCH2CH2OH)	1.05	100%	-
